# In US20020147136A1, “Compounds for targeting endothelial cells, compositions containing the same and methods for their use” (priority 2000, published 2002):
# Residues, ends and D or L forms follow the SMILES beside them.
# Legend:
# [1] = system: Human Umbilical Vein Endothelial Cells (HUVECS)
# Description: The ability of compositions comprising a TKPPR monomer and a TKPPR multimer to inhibit ^125I-VEGF binding to endothelial cells was evaluated using HUVECs.
# [2] = system: Rabbit aortic endothelial cells (RAEC); assay: Microbubble binding to RAEC in static culture; type: cell-based; conditions: free TKPPR 100 μM; 5% bubbles (Composition I of Example 5)
# Description: Rabbit aortic endothelial cells (RAEC) from Biowhittaker (Cat No. AC-7018, lot 9CC086 from a custom isolation) were obtained frozen on dry ice and stored in liquid nitrogen until thawing. RAEC were cultured and used in bubble binding assays exactly as HAEC (described above), except that EGM2-MV medium (Biowhittaker Cat No. CC-3202) was substituted for EGM-MV.
# [3] = target: Neuropilin-1/Fc; assay: Fluorescence polarization binding to NP-1/Fc; conditions: unlabeled competitor; read-out: IC50 for competing BRU-326 binding to NP-1
# Description: The ability of various compositions comprising TKPPR monomers or multimers to bind to NP-1/Fc and KDR-Fc was evaluated using FP. The binding studies of various Oregon Green (OG)-labeled compounds comprising TKPPR monomers or multimers and related compounds with Neuropilin-1/Fc, and KDR-Fc (both from R&D Systems), were carried out at 37° C. in D-PBS buffer (pH 7.4). FP values (mP) for each substrate was measured by titrating the ligand (5-20 nM) with receptor protein using a Jolley Research and Consulting FPM-1 fluorescence Polarization analyzer. In each of these experiments the observed polarization values were plotted against receptor concentration. The mP values for 100% binding of tracer labeled ligand to receptor protein was calculated using the software provided by the vendor.
# [4] = system: KDR/FIk-1 receptor; assay: Inhibition of phospho-tyrosine activation of KDR by VEGF in HUVEC; type: cell-based, human; conditions: 200 μM
# Description: The ability of various compositions comprising TKPPR monomers or multimers to inhibit phospho-tyrosine activation of the KDR/FIk-1 receptor by VEGF was evaluated using HUVECs. Nine 100 mm confluent dishes of cultured HUVEC cells were serum starved overnight in basal (EBM) medium without any additives. The next morning the plates were divided into three groups as follows:
# 1. 3 Plates had their medium changed to fresh EBM medium with no additions.
# After 5 minutes at 37° C. the dishes were all drained and quickly washed 3 times with cold D-PBS with Ca and Mg (Life Technologies). Lysates were prepared from each treatment group using Triton X-100 lysis buffer (20 mM Tris pH 8.0, 137 mM NaCl, 10% glycerol, 1% Triton X-100, 2 mM EDTA Supplemented with 1 mM PMSF, […] Leupeptin and Aprotinin, 1 mM sodium orthovanadate, 50 mM sodium pyrophosphate, 100 mM sodium fluoride.) The pooled lysates from each group were precleared using Protein A beads from Sigma then incubated overnight with anti-KDR antibody (Sc-504 from Santa Cruz Biotech). The immune complexes were brought down by adding fresh Protein A beads. […] The intensity of phosphorylated (active) KDR for each treatment group was determined from the PY-20 blot then normalized to the total amount of KDR present as determined by re-probing with anti-KDR (sc-315).
# [5] = system: HAEC; assay: Inhibition of TKPPR-bubble binding to HAEC in static culture by competing agents; type: cell-based, human; conditions: for inhibition of bubble binding: 10 μM free TKPPR; for Bubbles Bound (average of duplicate): 1% BRU-114 bubbles
# Description: Vials of the compositions of example 5 and of example 6 may be reconstituted with 5 mL of sterile saline, injected using a 20-guage 1.5 inch needle. Bubbles may be then formed within the vials by shaking by hand vigorously for 30 seconds. 1 to 5 mL of the bubble formulation may be removed from each vial and diluted with 3 volumes of D-PBS (without calcium or magnesium) within 1 hour of use.
# Chamber slides containing confluent HAEC may be drained of culture medium, which was immediately replaced with one of the final bubble solutions prepared above. The wells may be slightly overfilled such that the liquid meniscus protrudes slightly above the plastic well-forming scaffold of the slide. Bubble solutions may be only added to alternate wells to minimize liquid cross-talk. The wells may be sealed with a piece of Parafilm and the slide incubated 20 minutes, inverted (according to Klibanov A. L., Advanced drug Delivery Reviews, 37, 1999, 139-157) to allow the bubbles to rise and make contact with the cells, after which the solutions may be poured off. Weakly associated bubbles may be removed by washing each well twice with 0.5 mL of D-PBS, swirling gently each time before pouring off. Additional D-PBS (0.5 mL) may be added to wells after the washes to keep the cells submerged until microscopic evaluation.
# Composition I of Example 5 was repeated exactly as described except that 0.5 mg DPPE-GTKPPR was added (instead of 2.5 mg) yielding compositions with 1% DPPE-GTKPPR. Vials of this composition as well as that of composition I ofExample 5 (5% DPPE-GTKPPR) were reconstituted with 5 mL of sterile saline, injected using a 20-guage 1.5 inch needle. Bubbles were then formed within the vials by shaking by hand vigorously for 30 seconds. 1 to 5 mL of the bubble formulation was removed from each vial and diluted with 3 volumes of D-PBS (without calcium or magnesium) within 1 hour of use.
# Chamber slides containing confluent HAEC were drained of culture medium, which was immediately replaced with one of the final bubble solutions prepared above. The wells were slightly overfilled such that the liquid meniscus protruded slightly above the plastic well-forming scaffold of the slide. Bubble solutions were only added to alternate wells to minimize liquid cross-talk. The wells were sealed with a piece of Parafilm and the slide was incubated 20 minutes, inverted to allow the bubbles to rise and make contact with the cells, after which the solutions were poured off. Weakly associated bubbles were removed by washing each well twice with 0.5 mL of D-PBS, swirling gently each time pouring off. Additional D-PBS (0.5 mL) was added to wells after the washes to keep the cells submerged until microscopic evaluation.
# Assays were performed as described for Example 7 using microbubble compositions containing 2% BRU-114 (Composition I of Example 5) as a % of total phospholipid in the composition.
# Compositions were reconstituted and assays were performed as described in Example 7 using microbubble compositions containing 1% BRU-114 (Composition I of Example 5) as a % of total phospholipid in the composition.
# Assays were performed as described for Example 7 using microbubble compositions containing 2% BRU-114 (as a % of total phospholipid in the composition).
structure (smiles),measurement,setting,value
"CC(O)C(N)C(=O)NC(CCCCN)C(=O)N1CCCC1C(=O)N1CCCC1C(=O)NC(CCCNC(=N)N)C(=O)O [TKPPR, L-Arginine, L-threonyl-L-lysyl-L-prolyl-L-prolyl] (H-TKPPR-OH; configuration not given here)",IC50,[1],250 µM
same,RAEC bubbles bound,[2],21
same,IC50,[3],80 µM
same,effect on the ability of VEGF to activate KDR,[4],no effect
same,inhibition of bubble binding,[5]; 1% composition bubbles,82.7%
same,inhibition of bubble binding,[5]; 5% composition bubbles,no inhibition
same,block of bubble association with HAEC,"[5]; Example 7, 10 to 100 μM free TKPPR peptide",blocked
same,Bubbles Bound (average of duplicate),[5]; competitor 5 microM,790
same,Bubbles Bound (average of duplicate),[5]; competitor 10 microM,528
same,Bubbles Bound (average of duplicate),[5]; competitor 25 microM,106
same,Bubbles Bound % of control binding,"[5]; competitor 25 microM, 2% BRU-114 bubbles",16%
same,Bubbles Bound (average of duplicate),[5]; competitor 50 microM,56
same,Bubbles Bound (average of duplicate),[5]; competitor 100 microM,17
same,Average % Inhibition of bubble binding,"[5]; free TKPPR 5 μM, 1% composition bubbles",45.7%
same,Average % Inhibition of bubble binding,"[5]; free TKPPR 10 μM, 1% composition bubbles",79.6%
same,Average % Inhibition of bubble binding,"[5]; free TKPPR 25 μM, 1% composition bubbles",82.0%
same,Average % Inhibition of bubble binding,"[5]; free TKPPR 50 μM, 1% composition bubbles",92.7%
same,Average % Inhibition of bubble binding,"[5]; free TKPPR 100 μM, 1% composition bubbles",93.7%
same,HAEC bubbles bound,"[5]; free TKPPR 100 μM, 5% bubbles (Composition I of Example 5)",58
